The source of these data is patent US10189841B2, “Purinones as ubiquitin-specific protease 1 inhibitors” (Forma Therapeutics, Inc., priority 2015, dated 2019).

USP1 (construct USP1 (I-785, GG670, 671AA)/UAF1 (I-677)-Flag), sequence (O94782 whole entry G670A/G671A): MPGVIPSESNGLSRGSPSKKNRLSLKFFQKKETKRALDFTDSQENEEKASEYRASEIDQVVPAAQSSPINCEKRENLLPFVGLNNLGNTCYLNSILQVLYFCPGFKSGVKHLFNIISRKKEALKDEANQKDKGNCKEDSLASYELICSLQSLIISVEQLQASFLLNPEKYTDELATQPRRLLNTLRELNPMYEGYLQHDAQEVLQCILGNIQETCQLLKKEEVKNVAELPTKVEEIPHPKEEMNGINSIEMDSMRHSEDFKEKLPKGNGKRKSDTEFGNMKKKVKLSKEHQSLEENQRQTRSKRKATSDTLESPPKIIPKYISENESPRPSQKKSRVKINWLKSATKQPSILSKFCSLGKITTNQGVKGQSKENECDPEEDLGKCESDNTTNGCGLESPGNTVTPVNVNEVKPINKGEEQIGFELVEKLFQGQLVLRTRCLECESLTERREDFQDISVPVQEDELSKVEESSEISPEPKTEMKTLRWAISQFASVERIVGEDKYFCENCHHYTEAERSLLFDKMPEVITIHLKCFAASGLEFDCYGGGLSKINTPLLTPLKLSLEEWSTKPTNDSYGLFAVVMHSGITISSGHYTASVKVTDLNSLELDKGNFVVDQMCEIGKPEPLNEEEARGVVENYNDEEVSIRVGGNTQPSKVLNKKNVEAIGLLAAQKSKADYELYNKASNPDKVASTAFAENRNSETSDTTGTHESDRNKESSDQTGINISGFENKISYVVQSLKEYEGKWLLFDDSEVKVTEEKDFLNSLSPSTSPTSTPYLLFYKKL
USP1 (construct USP1 (I-785, GG670, 671AA)/UAF1 (I-677)-Flag), sequence (Q8TAF3 whole entry partner): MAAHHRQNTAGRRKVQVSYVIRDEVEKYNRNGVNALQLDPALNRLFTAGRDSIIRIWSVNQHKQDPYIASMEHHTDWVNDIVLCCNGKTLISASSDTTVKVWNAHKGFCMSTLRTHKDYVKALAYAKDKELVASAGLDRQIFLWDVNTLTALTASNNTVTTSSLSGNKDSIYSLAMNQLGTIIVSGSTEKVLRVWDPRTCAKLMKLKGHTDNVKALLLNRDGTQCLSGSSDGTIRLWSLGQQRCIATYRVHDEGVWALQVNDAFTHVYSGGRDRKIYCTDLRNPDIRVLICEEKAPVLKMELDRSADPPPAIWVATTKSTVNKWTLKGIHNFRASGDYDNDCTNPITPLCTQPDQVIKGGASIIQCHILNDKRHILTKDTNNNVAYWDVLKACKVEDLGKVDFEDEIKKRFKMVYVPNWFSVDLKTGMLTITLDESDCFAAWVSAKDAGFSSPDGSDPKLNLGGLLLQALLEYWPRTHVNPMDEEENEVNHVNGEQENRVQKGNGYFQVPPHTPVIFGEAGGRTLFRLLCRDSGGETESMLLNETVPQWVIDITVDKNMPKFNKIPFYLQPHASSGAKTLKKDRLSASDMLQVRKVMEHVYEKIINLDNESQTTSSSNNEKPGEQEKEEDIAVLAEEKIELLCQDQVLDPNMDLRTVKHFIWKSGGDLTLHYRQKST

The target in the assay is USP1 (construct USP1 (I-785, GG670, 671AA)/UAF1 (I-677)-Flag) (Homo sapiens (Human), UniProt O94782, G670A/G671A). The assay is described as follows: Ubiquitin-Rhodamine 110 assay for USP1 activity. As to conditions: USP1/UAF1 25 pM, Ub-Rh110 25 nM, 30 min preincubation. The assay is classed as biochemical. The essentials:
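Ub-Rh110 (25 nM, ≪Km) cleavage read at ex 485/em 535 in Tris pH 8.0, CaCl2, GSH, Prionex, Triton X-100. The screen used 10 µM compound, 100 pM USP1/UAF1 and 45 min at RT.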
As for `Cc1cccn1-c1ccc(Cn2c(=O)[nH]c3cnc(-c4cccnc4C(C)C)nc32)cc1` [Compound I-54, 2-(2-isopropylpyridin-3-yl)-9-(4-(2-methyl-1H-pyrrol-1-yl)benzyl)-7,9-dihydro-8H-purin-8-one], the IC50 (in general, the concentration needed to halve the response being measured) fell in the range of 0.2 to 2 µM.
Compound `Cc1cc(C)n([C@H]2CC[C@H](Cn3c(=O)n(C)c4cnc(-c5ccccc5C(C)C)nc43)CC2)n1` [Compound I-112, 9-(((1r,4r)-4-(3,5-dimethyl-1H-pyrazol-1-yl)cyclohexyl)methyl)-2-(2-isopropylphenyl)-7-methyl-7,9-dihydro-8H-purin-8-one] gave a concentration for half-maximal inhibition (IC50) greater than 2 µM.
Compound `CC(C)c1ccccc1-c1ncc2[nH]c(=O)n(Cc3ccc(-c4cn(C(C)C)cn4)cc3)c2n1` [Compound I-275, 9-(4-(1-isopropyl-1H-imidazol-4-yl)benzyl)-2-(2-isopropylphenyl)-7,9-dihydro-8H-purin-8-one] showed an IC50 of less than 0.05 µM.
Consider `CC(C)c1ccccc1-c1ncc2c(n1)n(Cc1ccc(-c3nc(C(F)(F)F)cn3C)cc1)c(=O)n2C` [Compound I-63, 2-(2-isopropylphenyl)-7-methyl-9-(4-(1-methyl-4-(trifluoromethyl)-1H-imidazol-2-yl)benzyl)-7,9-dihydro-8H-purin-8-one], for which the IC50 is less than 0.05 µM.
With `CC(C)c1ncccc1-c1ncc2c(n1)n(Cc1ccc(-c3nc(C(F)(F)F)cn3C)cc1)c(=O)n2C` [Compound I-105, 2-(2-Isopropylpyridin-3-yl)-7-methyl-9-(4-(1-methyl-4-(trifluoromethyl)-1H-imidazol-2-yl)benzyl)-7,9-dihydro-8H-purin-8-one], the half-maximal inhibitory concentration (IC50) was less than 0.05 µM.
In the case of `CNc1nc(-c2cccnc2OC(F)F)nc2c1[nH]c(=O)n2Cc1ccc(-c2nc(C(F)(F)F)cn2C)cc1` [Compound I-531, 2-(2-(Difluoromethoxy)pyridin-3-yl)-9-(4-(1-methyl-4-(trifluoromethyl)-1H-imidazol-2-yl)benzyl)-6-(methylamino)-7,9-dihydro-8H-purin-8-one], the IC50 is less than 0.05 µM.
`CC(C)c1ccccc1-c1ncc2c(n1)n(Cc1cccc(OCCN(C)C)c1)c(=O)n2C` [Compound I-244, 9-(3-(2-(dimethylamino)ethoxy)benzyl)-2-(2-isopropylphenyl)-7-methyl-7,9-dihydro-8H-purin-8-one] yielded a concentration for half-maximal inhibition (IC50) greater than 2 µM.
`CC(C)c1ccccc1-c1ncc2[nH]c(=O)n(Cc3ccc(-n4ccc(C5CCNCC5)n4)cc3)c2n1` [Compound I-431, 2-(2-isopropylphenyl)-9-(4-(3-(piperidin-4-yl)-1H-pyrazol-1-yl)benzyl)-7,9-dihydro-8H-purin-8-one]: the concentration for half-maximal inhibition (IC50) lay in the range of 0.05 to 0.2 µM.
As for `Cc1nc(-c2ccc(Cn3c(=O)n(C)c4cnc(-c5ccccc5C(C)C)nc43)cc2)n(C)n1` [Compound I-283, 9-(4-(1,3-dimethyl-1H-1,2,4-triazol-5-yl)benzyl)-2-(2-isopropylphenyl)-7-methyl-7,9-dihydro-8H-purin-8-one], the figure is less than 0.05 µM; as for `CCC(CC)Oc1ncccc1-c1ncc2[nH]c(=O)n(Cc3ccc(-c4nc(C(F)(F)F)cn4C)cc3)c2n1` [Compound I-427, 9-(4-(1-methyl-4-(trifluoromethyl)-1H-imidazol-2-yl)benzyl)-2-(2-(pentan-3-yloxy)pyridin-3-yl)-7,9-dihydro-8H-purin-8-one], less than 0.05 µM; as for `CC(C)c1ccccc1-c1ncc2[nH]c(=O)n(Cc3ccc(-n4nccn4)cc3)c2n1` [Compound I-140, 9-(4-(2H-1,2,3-triazol-2-yl)benzyl)-2-(2-isopropylphenyl)-7,9-dihydro-8H-purin-8-one], 0.05 to 0.2 µM.
Turning to `CC(C)c1ccccc1-c1ncc2[nH]c(=O)n(Cc3ccc(C(=O)NC4CC4)cc3)c2n1` [Compound I-353, N-cyclopropyl-4-((2-(2-isopropylphenyl)-8-oxo-7,8-dihydro-9H-purin-9-yl)methyl)benzamide], the IC50 lay within 0.05 to 0.2 µM.
As to `CC(C)c1ccccc1-c1ncc2[nH]c(=O)n(Cc3ccc(C(=O)N[C@@H]4CCC[C@@H]4O)cc3)c2n1` [Compound I-387, N-((1R,2S)-2-hydroxycyclopentyl)-4-((2-(2-isopropylphenyl)-8-oxo-7,8-dihydro-9H-purin-9-yl)methyl)benzamide], the IC50 lay within 0.05 to 0.2 µM.
`Cn1cc(C(F)(F)F)nc1-c1ccc(Cn2c(=O)[nH]c3cnc(-c4cccnc4N4CCC(C(F)(F)F)CC4)nc32)cc1` [Compound I-329, 9-(4-(1-methyl-4-(trifluoromethyl)-1H-imidazol-2-yl)benzyl)-2-(2-(4-(trifluoromethyl)piperidin-1-yl)pyridin-3-yl)-7,9-dihydro-8H-purin-8-one] had a concentration for half-maximal inhibition (IC50) of less than 0.05 µM.
`Cn1cc(C(F)(F)F)nc1-c1ccc(Cn2c(=O)[nH]c3cnc(-c4cccnc4N4CC(F)(F)C4)nc32)cc1` [Compound I-336, 2-(2-(3,3-difluoroazetidin-1-yl)pyridin-3-yl)-9-(4-(1-methyl-4-(trifluoromethyl)-1H-imidazol-2-yl)benzyl)-7,9-dihydro-8H-purin-8-one]: the concentration for half-maximal inhibition (IC50) is less than 0.05 µM.
In turn, `CC(C)c1ccccc1-c1ncc2c(n1)n(CC1CCN(c3ncccn3)CC1)c(=O)n2C` [Compound I-493, 2-(2-isopropylphenyl)-7-methyl-9-((1-(pyrimidin-2-yl)piperidin-4-yl)methyl)-7,9-dihydro-8H-purin-8-one] gave an IC50 greater than 2 µM.
The compound `CC(C)c1ccccc1-c1ncc2[nH]c(=O)n(Cc3ccc(N4CCCC4=O)cc3)c2n1` [Compound I-512, 2-(2-Isopropylphenyl)-9-(4-(2-oxopyrrolidin-1-yl)benzyl)-7,9-dihydro-8H-purin-8-one] registered an IC50 of 0.05 to 0.2 µM.
In the case of `CC(C)c1ccccc1-c1ncc2c(n1)n(Cc1ccc(OCCN(C)C)cc1)c(=O)n2C` [Compound I-233, 9-(4-(2-(dimethylamino)ethoxy)benzyl)-2-(2-isopropylphenyl)-7-methyl-7,9-dihydro-8H-purin-8-one], the IC50 is 0.05 to 0.2 µM.
As for `Cc1cc(C)n([C@H]2CC[C@@H](Cn3c(=O)n(C)c4cnc(-c5ccccc5C(C)C)nc43)CC2)n1` [Compound I-111, 9-(((1s,4s)-4-(3,5-dimethyl-1H-pyrazol-1-yl)cyclohexyl)methyl)-2-(2-isopropylphenyl)-7-methyl-7,9-dihydro-8H-purin-8-one], the half-maximal inhibitory concentration (IC50) lay in the range of 0.05 to 0.2 µM.
Take `CC(C)c1ccccc1-c1ncc2[nH]c(=O)n(Cc3ccc(-c4ncc[nH]4)cc3)c2n1` [Compound I-437, 9-(4-(1H-imidazol-2-yl)benzyl)-2-(2-isopropylphenyl)-7,9-dihydro-8H-purin-8-one]: the IC50 was less than 0.05 µM.
The compound `CC(C)c1ccccc1-c1ncc2[nH]c(=O)n(Cc3ccc(C(=O)N4CC(O)C4)cc3)c2n1` [Compound I-377, 9-(4-(3-hydroxyazetidine-1-carbonyl)benzyl)-2-(2-isopropylphenyl)-7,9-dihydro-8H-purin-8-one] displayed a concentration for half-maximal inhibition (IC50) greater than 2 µM.
As for `CC(C)c1ccccc1-c1ncc2c(n1)n(Cc1ccc(OCC3CCOC3)cc1)c(=O)n2C` (stereo not shown) [Compound I-229, 2-(2-isopropylphenyl)-7-methyl-9-(4-((tetrahydrofuran-3-yl)methoxy)benzyl)-7,9-dihydro-8H-purin-8-one], the figure is 0.05 to 0.2 µM; as for `CC(C)c1ccccc1-c1ncc2[nH]c(=O)n(Cc3ccc(C(=O)N(C)C4CCOCC4)cc3)c2n1` [Compound I-367, 4-((2-(2-isopropylphenyl)-8-oxo-7,8-dihydro-9H-purin-9-yl)methyl)-N-methyl-N-(tetrahydro-2H-pyran-4-yl)benzamide], 0.05 to 0.2 µM; as for `COCCO[C@H]1CCN(C(=O)c2ccc(Cn3c(=O)[nH]c4cnc(-c5ccccc5C(C)C)nc43)cc2)C1` [Compound I-384, (S)-2-(2-isopropylphenyl)-9-(4-(3-(2-methoxyethoxy)pyrrolidine-1-carbonyl)benzyl)-7,9-dihydro-8H-purin-8-one], 0.2 to 2 µM.
In turn, `CO[C@@H](C)c1ccccc1-c1ncc2[nH]c(=O)n(Cc3ccc(-c4nc(C(F)(F)F)cn4C)cc3)c2n1` [Compound I-56, (S)-2-(2-(1-methoxyethyl)phenyl)-9-(4-(1-methyl-4-(trifluoromethyl)-1H-imidazol-2-yl)benzyl)-7,9-dihydro-8H-purin-8-one] displayed an IC50 of less than 0.05 µM.
For `CC(C)c1ccccc1-c1ncc2[nH]c(=O)n(Cc3ccc(C(=O)N4CCOCC4)cc3)c2n1` [Compound I-363, 2-(2-isopropylphenyl)-9-(4-(morpholine-4-carbonyl)benzyl)-7,9-dihydro-8H-purin-8-one], the half-maximal inhibitory concentration (IC50) was in the range of 0.05 to 0.2 µM.
For `CC(C)c1ccccc1-c1ncc2c(n1)n(Cc1ccc(-c3cccc4cn[nH]c34)cc1)c(=O)n2C` [Compound I-268, 9-(4-(1H-indazol-7-yl)benzyl)-2-(2-isopropylphenyl)-7-methyl-7,9-dihydro-8H-purin-8-one] the value was 0.05 to 0.2 µM; for `CC(C)c1ccccc1-c1ncc2c(n1)n(Cc1ccc(-c3cccc4ncnn34)cc1)c(=O)n2C` [Compound I-266, 9-(4-([1,2,4]triazolo[1,5-a]pyridin-5-yl)benzyl)-2-(2-isopropylphenyl)-7-methyl-7,9-dihydro-8H-purin-8-one], 0.05 to 0.2 µM.
With `CC(C)c1ccccc1-c1ncc2[nH]c(=O)n(Cc3ccc(-n4ccc(N5CCOCC5)n4)cc3)c2n1` [Compound I-174, 2-(2-isopropylphenyl)-9-(4-(3-morpholino-1H-pyrazol-1-yl)benzyl)-7,9-dihydro-8H-purin-8-one], the 50% inhibitory concentration (IC50) is less than 0.05 µM.
`CC(C)c1ccccc1-c1ncc2[nH]c(=O)n(Cc3ccc(-c4ncc(C5CCN(C)CC5)n4C)cc3)c2n1` [Compound I-446, 2-(2-isopropylphenyl)-9-(4-(1-methyl-5-(1-methylpiperidin-4-yl)-1H-imidazol-2-yl)benzyl)-7,9-dihydro-8H-purin-8-one]: the IC50 was less than 0.05 µM.
`CC(C)c1ccccc1-c1ncc2c(n1)n(Cc1ccc(-c3nc(C(F)(F)F)cn3C3CNC3)cc1)c(=O)n2C` [Compound I-436, 9-(4-(1-(azetidin-3-yl)-4-(trifluoromethyl)-1H-imidazol-2-yl)benzyl)-2-(2-isopropylphenyl)-7-methyl-7,9-dihydro-8H-purin-8-one] gave a half-inhibitory concentration (IC50) of less than 0.05 µM.
